From patent US7727998B2, “Melanin-concentrating hormone receptor antagonists containing piperidine derivatives as the active ingredient” (Banyu Pharmaceutical Co., Ltd., priority 2003, dated 2010)

target: T1, human MCH-1R (Homo sapiens, UniProt Q99705); assay: MCH binding inhibition test; conditions: not given
T1 construct: expressed in transfected cells; host or cells: CHO-K1 (American Type Culture Collection), membrane samples
Text: Pharmacological Test Example 1
(MCH Binding Inhibition Test)
A human MCH-1R encoding cDNA sequence [FEBS Letters, Vol. 398, p. 253 (1996); Biochimica et Biophisica Acta, Vol. 1401, p. 216 (1998)] was cloned to plasmid vector pEF/mic/cyto (Invitrogen Corporation). The obtained expression vector was transfected to a host cell CHO-K1 (American Type Culture Collection) using lipofectamine plus reagent (Life Technology Inc.) to provide MCH-1R expression cells.
Membrane samples prepared from the MCH-1R expression cells were incubated with each test compound and 50 pM of [^125I]MCH (NEN Co.), in an assay buffer (50 mM Tris buffer comprising 10 mM magnesium chloride, 2 mM ethylenediamine tetraacetate, 0.01% bacitracin and 0.2% bovine serum albumin; pH 7.4) at 25° C. for an hour, followed by filtration through Glass Filter GF/C (Wattman Co.). After washing the glass filter with 50 mM Tris buffer (pH7.4) comprising 10 mM magnesium chloride, 2 mM ethylenediamine tetraacetate and 0.04% Tween-20, radiative activity on the glass filter was measured. Non-specific binding was measured in the presence of 1 μM human MCH and 50% inhibition concentration (IC50 value) of each test compound to specific [^125] MCH binding was determined.

T1 sequence (Q99705 whole entry): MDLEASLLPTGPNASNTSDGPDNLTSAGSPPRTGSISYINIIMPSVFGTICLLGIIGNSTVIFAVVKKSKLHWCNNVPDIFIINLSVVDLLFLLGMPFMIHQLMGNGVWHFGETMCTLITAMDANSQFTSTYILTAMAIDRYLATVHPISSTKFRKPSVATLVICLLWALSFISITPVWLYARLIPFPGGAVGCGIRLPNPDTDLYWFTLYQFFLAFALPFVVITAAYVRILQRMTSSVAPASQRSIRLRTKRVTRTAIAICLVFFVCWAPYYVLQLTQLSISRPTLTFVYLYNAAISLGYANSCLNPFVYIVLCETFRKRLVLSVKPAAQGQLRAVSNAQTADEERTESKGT

SMILES	IC50 [nM]
CN(CCCN1CCC2(CC1)OCc1cc(F)ncc12)C(=O)C(c1ccc(F)nc1)c1ccc(F)nc1 [Example 48, 2,2-Bis(6-fluoro-3-pyridinyl)-N-methyl-N-[3-(spiro[5-fluoro-6-azaisobenzofuran-1(3H), 4′-piperidin]-1-yl)propyl]-acetamide]	6.5
O=C(NCCCN1CCC2(CC1)OCc1cc(F)ccc12)C(c1ccc(F)c(F)c1)N1CCCC1=O (stereo not drawn) [Example 6, 2-(3,4-Difluorophenyl)-2-(2-oxo-1-pyrrolidinyl)-N-[3-(spiro[5-fluoroisobenzofuran-1(3H), 4′-piperidin]-1-yl)propyl]-acetamide]	5
CN(CCCN1CCC2(CC1)OCc1cc(F)ccc12)C(=O)C(c1ccc(F)c(F)c1)N1CCCC1=O (stereo not drawn) [Example 33, 2-(3,4-Difluorophenyl)-N-methyl-2-(2-oxo-1-pyrrolidinyl-N-[3-spiro[5-fluoroisobenzofuran-1(3H), 4′-piperidin]-1-yl)-propyl]acetamide]	1.4
Cc1nccn1C(C(=O)N(C)CCCN1CCC2(CC1)OCc1ccc(F)cc12)c1ccc(F)c(F)c1 (stereo not drawn) [Example 43, 2-(3,4-Difluorophenyl)-N-methyl-2-(2-methyl-1H-imidazol-1-yl)-N-[3-(spiro[6-fluoroisobenzofuran-1(3H), 4′-piperidin]-1-yl)-propyl]acetamide]	0.2
CN(CCCN1CCC2(CC1)OCc1ccccc12)C(=O)C(c1ccc(F)c(F)c1)n1ncnn1 (stereo not drawn) [Example 28, 2-(3,4-Difluorophenyl)-N-methyl-2-(2H-1,2,3,4-tetrazol-2-yl)-N-[3-(spiro[isobenzofuran-1(3H), 4′-piperidin]-1-yl)propyl]acetamide]	1.9

same assay, conditions: inhibition of specific [125I]MCH (50 pM) binding; membranes of MCH-1R expressing CHO-K1 cells; 25° C., one hour, pH 7.4; read-out: IC50

SMILES	IC50 [nM]
CN(CCCN1CCC2(CC1)OCc1ccccc12)C(=O)C(c1ccc(Cl)cc1)n1cccc1 (stereo not drawn) [Example 12, 2-(4-Chlorophenyl)-N-methyl-2-(1H-pyrrol-1-yl)-N-[3-(spiro-[isobenzofuran-1(3H), 4′-piperidin]-1-yl)propyl]acetamide]	1
CN(CCCN1CCC2(CC1)OCc1ccccc12)C(=O)C(c1ccc(F)c(F)c1)n1ccnn1 (stereo not drawn) [Example 18, 2-(3,4-Difluorophenyl)-N-methyl-2-(1H-1,2,3-triazol-1-yl)-N-[3-(spiro[isobenzofuran-1(3H), 4′-piperidin]-1-yl)propyl]acetamide]	1.9
CCN(CCCN1CCC2(CC1)OCc1ccccc12)C(=O)C(c1ccc(F)c(F)c1)N1CCCC1=O (stereo not drawn) [Example 67, 2-(3,4-Difluorophenyl)-N-ethyl-2-(2-oxo-1-pyrrolidinyl)-N-[3-(spiro[isobenzofuran-1(3H), 4′-piperidin]-1-yl)propyl]acetamide]	1
CCC(=O)Nc1cccc(C2CCN(CCCN(C)C(=O)C(C)(C)c3ccc(F)c(F)c3)CC2)c1 [Example 60, 2-(3,4-Difluorophenyl)-2,2-dimethyl-N-methyl-N-[3-(4-(3-(propionylamino)phenyl)-1-piperidinyl)propyl]acetamide]	2.5
